Tests used:
[1] = test system: wild-type Ba/F3 cells grown upon IL-3; assay: Ba/F3 proliferation assay (IL-3 dependent growth, MTT); assay type: cell-based, murine; conditions: peptide 1 μM to 100 μM in PBS; cell number after three days by MTT assay; FIG. 5
Method: FIG. 5. Ba/F3 cell assay: Inhibition of the growth of the IL-3 dependent growth of Ba/F3 cells has been brought about by the addition of a peptide derived from JAK2 PSL. PSLShort PAEFMRMI (SEQ ID NO:15) and PSLControl SPSKFRMPEAMIGND (SEQ ID NO:16) were added at concentrations ranging from IμM to 100 μM in phosphate buffered saline. Cell number after three days was measured by an MTT assay.
These peptides were tested for biological activity by means of a proliferation assay using the murine growth factor dependent hematopoietic cell line Ba/F3. On the basis of our hypothesis of the role of how the PSL region might work, we reasoned that if these peptides were to supplant the PSL from the KLD of JAK2, then the JAK PTK activity would thereby either become unregulated, resulting in a IL-3 independent growth phenotype, or the normal IL-3 dependent growth of these cells would be inhibited. […] We hypothesize that the activity of the PSLshort peptide was dependent upon the presence of the JAK2 KLD, and conclude that its mode of action is by displacement of the PSL of JAK2 from the JAK2 KLD, resulting in unprimed JAK2 molecules that cannot be triggered by IL-3. […]
The murine hematopoietic cell line Ba/F3 was grown in the presence of IL-3. […] Cell number after three days was measured by an MTT assay.

[2] = test system: Ba/F3 cells transformed to factor independence by ectopic expression of TEL/JAK2 fusion; assay: Ba/F3 proliferation assay, cells transformed to factor independence by TEL/JAK2; assay type: cell-based, murine; conditions: oncogenic JAK2 (PTK domain fused to PNT domain of TEL); FIG. 5

## PAEFMRMI (homo sapiens) [PSLshort]
[1]
  inhibition of growth of wild-type Ba/F3 cells grown upon IL-3: able to inhibit growth
[2]
  inhibition of growth of Ba/F3 cells transformed to factor independence by TEL/JAK2: unable to inhibit
